Tested on: male rats
Assay: Fertility trials following oral administration (challenge mating)
Assay type: in vivo, rat
Conditions: for MALES MATED/MALES FERTILE: Table 9C
Procedure: The following table illustrates the results of a single oral does of 6 mg/kg of RC-MC-110 orally to male rats. […] The ethyl alcohol was evaporated 10% prior to administration. The “embryos normal” and “embryos abnormal” represents the mean number of embryos per pregnant female. […]
The following table illustrates the results of a single oral does of four different doses of RC-MC-110 orally to male rats.

[1] = Table 9A, seven consecutive daily oral doses of 6 mg/day, week 1
[2] = Table 9A, seven consecutive daily oral doses of 6 mg/day, week 2
[3] = Table 9A, seven consecutive daily oral doses of 6 mg/day, week 3
[4] = Table 9A, seven consecutive daily oral doses of 6 mg/day, week 4
[5] = Table 9A, seven consecutive daily oral doses of 6 mg/day, week 5
[6] = Table 9A, seven consecutive daily oral doses of 6 mg/day, week 6
[7] = Table 9A, seven consecutive daily oral doses of 6 mg/day, week 7
[8] = Table 9A, seven consecutive daily oral doses of 6 mg/day, week 8
[9] = Table 9A, seven consecutive daily oral doses of 6 mg/day, week 9
[10] = Table 9A, seven consecutive daily oral doses of 6 mg/day, week 10
[11] = Table 9A, seven consecutive daily oral doses of 6 mg/day, week 12
[12] = Table 9A, seven consecutive daily oral doses of 6 mg/day, week 13
[13] = Table 9A, seven consecutive daily oral doses of 6 mg/day, week 14
[14] = Table 9A, seven consecutive daily oral doses of 6 mg/day, week 18
[15] = Table 9B, single oral dose of 6 mg/kg, week 1
[16] = Table 9B, single oral dose of 6 mg/kg, week 2
[17] = Table 9B, single oral dose of 6 mg/kg, week 3
[18] = Table 9B, single oral dose of 6 mg/kg, week 4
[19] = Table 9B, single oral dose of 6 mg/kg, week 5
[20] = Table 9B, single oral dose of 6 mg/kg, week 6
[21] = Table 9B, single oral dose of 6 mg/kg, week 7
[22] = Table 9B, single oral dose of 6 mg/kg, week 8
[23] = Table 9B, single oral dose of 6 mg/kg, week 9
[24] = Table 9B, single oral dose of 6 mg/kg, week 10
[25] = Table 9B, single oral dose of 6 mg/kg, week 12
[26] = Table 9B, single oral dose of 6 mg/kg, week 13
[27] = Table 9B, single oral dose of 6 mg/kg, week 14
[28] = Table 9B, single oral dose of 6 mg/kg, week 18
[29] = Table 9B, single oral dose of 6 mg/kg, week 26

O=C(O)/C=C/c1nn(Cc2ccc(Cl)cc2Cl)c2cc(C(F)(F)F)ccc12 [RC-MC-110, trans 3-[1-(2,4-dichlorobenzyl)-6-trifluoromethyl-1H-indazol-3-yl]-acrylic acid]
4: Males fertile (Table 9B, single oral dose of 6 mg/kg, week 9, 7 males mated) | Males fertile (Table 9B, single oral dose of 6 mg/kg, week 12, 7 males mated) | Males fertile (Table 9B, single oral dose of 6 mg/kg, week 14, 7 males mated) | Males fertile (Table 9B, single oral dose of 6 mg/kg, week 18, 7 males mated)
0.3: Embryos abnormal (mean number per pregnant female) [2] | Embryos abnormal (mean number per pregnant female) [11] | Embryos abnormal (mean number per pregnant female) [12] | Embryos abnormal (mean number per pregnant female) [16]
7/1: MALES MATED/MALES FERTILE (single oral dose 6.0 MG/KG in 10% ethyl alcohol and sesame oil, week 6)
0.1: Embryos abnormal (mean number per pregnant female) [25]
10: Embryos normal (mean number per pregnant female) [20]
14: Embryos normal (mean number per pregnant female) [11] | Embryos normal (mean number per pregnant female) [13] | Embryos normal (mean number per pregnant female) [14] | Embryos normal (mean number per pregnant female) [25] | Embryos normal (mean number per pregnant female) [26] | Embryos normal (mean number per pregnant female) [28]
0: Embryos abnormal (mean number per pregnant female) [3] | Embryos abnormal (mean number per pregnant female) [5] | Embryos normal (mean number per pregnant female) [5] | Males fertile (Table 9A, seven consecutive daily oral doses of 6 mg/day, week 5, 7 males mated) | Embryos abnormal (mean number per pregnant female) [6] | Embryos normal (mean number per pregnant female) [6] | Males fertile (Table 9A, seven consecutive daily oral doses of 6 mg/day, week 6, 7 males mated) | Embryos abnormal (mean number per pregnant female) [7] | Embryos normal (mean number per pregnant female) [7] | Males fertile (Table 9A, seven consecutive daily oral doses of 6 mg/day, week 7, 7 males mated) | Embryos abnormal (mean number per pregnant female) [8] | Embryos normal (mean number per pregnant female) [8] | Males fertile (Table 9A, seven consecutive daily oral doses of 6 mg/day, week 8, 6 males mated) | Embryos abnormal (mean number per pregnant female) [10] | Embryos abnormal (mean number per pregnant female) [13] | Embryos abnormal (mean number per pregnant female) [14] | Embryos abnormal (mean number per pregnant female) [18] | Embryos normal (mean number per pregnant female) [18] | Males fertile (Table 9B, single oral dose of 6 mg/kg, week 4, 7 males mated) | Embryos abnormal (mean number per pregnant female) [19] | Embryos normal (mean number per pregnant female) [19] | Males fertile (Table 9B, single oral dose of 6 mg/kg, week 5, 7 males mated) | Embryos abnormal (mean number per pregnant female) [21]
3: Males fertile (Table 9A, seven consecutive daily oral doses of 6 mg/day, week 4, 7 males mated) | Males fertile (Table 9B, single oral dose of 6 mg/kg, week 8, 7 males mated) | Males fertile (Table 9B, single oral dose of 6 mg/kg, week 10, 7 males mated) | Males fertile (Table 9B, single oral dose of 6 mg/kg, week 13, 7 males mated) | Males fertile (Table 9B, single oral dose of 6 mg/kg, week 26, 7 males mated)
6/5: MALES MATED/MALES FERTILE (single oral dose 1.5 MG/KG in 10% ethyl alcohol and sesame oil, week 1) | MALES MATED/MALES FERTILE (single oral dose 1.5 MG/KG in 10% ethyl alcohol and sesame oil, week 3) | MALES MATED/MALES FERTILE (single oral dose 1.5 MG/KG in 10% ethyl alcohol and sesame oil, week 4)
7/7: MALES MATED/MALES FERTILE (single oral dose 6.0 MG/KG in 10% ethyl alcohol and sesame oil, week 1) | MALES MATED/MALES FERTILE (single oral dose 6.0 MG/KG in 10% ethyl alcohol and sesame oil, week 2)
0.6: Embryos abnormal (mean number per pregnant female) [29]
9: Embryos normal (mean number per pregnant female) [9]
7/4: MALES MATED/MALES FERTILE (single oral dose 6.0 MG/KG in 10% ethyl alcohol and sesame oil, week 9) | MALES MATED/MALES FERTILE (single oral dose 6.0 MG/KG in 10% ethyl alcohol and sesame oil, week 12) | MALES MATED/MALES FERTILE (single oral dose 6.0 MG/KG in 10% ethyl alcohol and sesame oil, week 14)
0.5: Embryos abnormal (mean number per pregnant female) [4]
7/0: MALES MATED/MALES FERTILE (single oral dose 6.0 MG/KG in 10% ethyl alcohol and sesame oil, week 4) | MALES MATED/MALES FERTILE (single oral dose 6.0 MG/KG in 10% ethyl alcohol and sesame oil, week 5)
6: Embryos normal (mean number per pregnant female) [17]
11: Embryos normal (mean number per pregnant female) [24] | Embryos normal (mean number per pregnant female) [27]
6/3: MALES MATED/MALES FERTILE (single oral dose 3.0 MG/KG in 10% ethyl alcohol and sesame oil, week 3)
15: Embryos normal (mean number per pregnant female) [1] | Embryos normal (mean number per pregnant female) [12] | Embryos normal (mean number per pregnant female) [15]
0.4: Embryos abnormal (mean number per pregnant female) [23]
7/2: MALES MATED/MALES FERTILE (single oral dose 6.0 MG/KG in 10% ethyl alcohol and sesame oil, week 3) | MALES MATED/MALES FERTILE (single oral dose 6.0 MG/KG in 10% ethyl alcohol and sesame oil, week 7)
6/2: MALES MATED/MALES FERTILE (single oral dose 3.0 MG/KG in 10% ethyl alcohol and sesame oil, week 4)
0.7: Embryos abnormal (mean number per pregnant female) [27] | Embryos abnormal (mean number per pregnant female) [28]
7: Males fertile (Table 9A, seven consecutive daily oral doses of 6 mg/day, week 1, 7 males mated) | Males fertile (Table 9A, seven consecutive daily oral doses of 6 mg/day, week 2, 7 males mated) | Embryos normal (mean number per pregnant female) [3] | Embryos normal (mean number per pregnant female) [4] | Males fertile (Table 9B, single oral dose of 6 mg/kg, week 1, 7 males mated) | Males fertile (Table 9B, single oral dose of 6 mg/kg, week 2, 7 males mated)
2: Males fertile (Table 9A, seven consecutive daily oral doses of 6 mg/day, week 3, 7 males mated) | Embryos normal (mean number per pregnant female) [10] | Males fertile (Table 9A, seven consecutive daily oral doses of 6 mg/day, week 12, 7 males mated) | Males fertile (Table 9A, seven consecutive daily oral doses of 6 mg/day, week 13, 7 males mated) | Males fertile (Table 9A, seven consecutive daily oral doses of 6 mg/day, week 14, 7 males mated) | Males fertile (Table 9A, seven consecutive daily oral doses of 6 mg/day, week 18, 7 males mated) | Embryos abnormal (mean number per pregnant female) [17] | Males fertile (Table 9B, single oral dose of 6 mg/kg, week 3, 7 males mated) | Males fertile (Table 9B, single oral dose of 6 mg/kg, week 7, 7 males mated)
12: Embryos normal (mean number per pregnant female) [16] | Embryos normal (mean number per pregnant female) [22] | Embryos normal (mean number per pregnant female) [23]
1: Embryos abnormal (mean number per pregnant female) [9] | Males fertile (Table 9A, seven consecutive daily oral doses of 6 mg/day, week 9, 7 males mated) | Males fertile (Table 9A, seven consecutive daily oral doses of 6 mg/day, week 10, 7 males mated) | Embryos abnormal (mean number per pregnant female) [20] | Males fertile (Table 9B, single oral dose of 6 mg/kg, week 6, 7 males mated) | Embryos abnormal (mean number per pregnant female) [22] | Embryos abnormal (mean number per pregnant female) [24]
6/6: MALES MATED/MALES FERTILE (single oral dose 0.75 MG/KG in 10% ethyl alcohol and sesame oil, week 1) | MALES MATED/MALES FERTILE (single oral dose 0.75 MG/KG in 10% ethyl alcohol and sesame oil, week 3) | MALES MATED/MALES FERTILE (single oral dose 0.75 MG/KG in 10% ethyl alcohol and sesame oil, week 4) | MALES MATED/MALES FERTILE (single oral dose 0.75 MG/KG in 10% ethyl alcohol and sesame oil, week 5) | MALES MATED/MALES FERTILE (single oral dose 0.75 MG/KG in 10% ethyl alcohol and sesame oil, week 6) | MALES MATED/MALES FERTILE (single oral dose 0.75 MG/KG in 10% ethyl alcohol and sesame oil, week 7) | MALES MATED/MALES FERTILE (single oral dose 0.75 MG/KG in 10% ethyl alcohol and sesame oil, week 8) | MALES MATED/MALES FERTILE (single oral dose 1.5 MG/KG in 10% ethyl alcohol and sesame oil, week 2) | MALES MATED/MALES FERTILE (single oral dose 1.5 MG/KG in 10% ethyl alcohol and sesame oil, week 5) | MALES MATED/MALES FERTILE (single oral dose 1.5 MG/KG in 10% ethyl alcohol and sesame oil, week 6) | MALES MATED/MALES FERTILE (single oral dose 1.5 MG/KG in 10% ethyl alcohol and sesame oil, week 7) | MALES MATED/MALES FERTILE (single oral dose 1.5 MG/KG in 10% ethyl alcohol and sesame oil, week 8) | MALES MATED/MALES FERTILE (single oral dose 1.5 MG/KG in 10% ethyl alcohol and sesame oil, week 9) | MALES MATED/MALES FERTILE (single oral dose 3.0 MG/KG in 10% ethyl alcohol and sesame oil, week 1) | MALES MATED/MALES FERTILE (single oral dose 3.0 MG/KG in 10% ethyl alcohol and sesame oil, week 2) | MALES MATED/MALES FERTILE (single oral dose 3.0 MG/KG in 10% ethyl alcohol and sesame oil, week 5) | MALES MATED/MALES FERTILE (single oral dose 3.0 MG/KG in 10% ethyl alcohol and sesame oil, week 6) | MALES MATED/MALES FERTILE (single oral dose 3.0 MG/KG in 10% ethyl alcohol and sesame oil, week 7) | MALES MATED/MALES FERTILE (single oral dose 3.0 MG/KG in 10% ethyl alcohol and sesame oil, week 8) | MALES MATED/MALES FERTILE (single oral dose 3.0 MG/KG in 10% ethyl alcohol and sesame oil, week 9)
1.0: Embryos abnormal (mean number per pregnant female) [26]
13: Embryos normal (mean number per pregnant female) [2] | Embryos normal (mean number per pregnant female) [21] | Embryos normal (mean number per pregnant female) [29]
0.2: Embryos abnormal (mean number per pregnant female) [1] | Embryos abnormal (mean number per pregnant female) [15]
7/3: MALES MATED/MALES FERTILE (single oral dose 6.0 MG/KG in 10% ethyl alcohol and sesame oil, week 8) | MALES MATED/MALES FERTILE (single oral dose 6.0 MG/KG in 10% ethyl alcohol and sesame oil, week 10) | MALES MATED/MALES FERTILE (single oral dose 6.0 MG/KG in 10% ethyl alcohol and sesame oil, week 13)
8/8: MALES MATED/MALES FERTILE (single oral dose 0.75 MG/KG in 10% ethyl alcohol and sesame oil, week 2)

Source: patent publication US8362031B2, “Lonidamine analogues and treatment of polycystic kidney disease” (University of Kansas, priority 2004, dated 2013)
